Assay results as given in ChEMBL document CHEMBL1909046, “DrugMatrix in vitro pharmacology data”.

Experiments:
[1] = molecular target: T1, Angiotensin-converting enzyme (Oryctolagus cuniculus, UniProt P12822); format: tissue-based, Lung;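 further: enzymatic inhibition of angiotensin-converting enzyme measured with FAPGG as the substrate; in other assays of this panel Not Active means under 50% inhibition at 10 µM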
T1 sequence (P12822 whole entry): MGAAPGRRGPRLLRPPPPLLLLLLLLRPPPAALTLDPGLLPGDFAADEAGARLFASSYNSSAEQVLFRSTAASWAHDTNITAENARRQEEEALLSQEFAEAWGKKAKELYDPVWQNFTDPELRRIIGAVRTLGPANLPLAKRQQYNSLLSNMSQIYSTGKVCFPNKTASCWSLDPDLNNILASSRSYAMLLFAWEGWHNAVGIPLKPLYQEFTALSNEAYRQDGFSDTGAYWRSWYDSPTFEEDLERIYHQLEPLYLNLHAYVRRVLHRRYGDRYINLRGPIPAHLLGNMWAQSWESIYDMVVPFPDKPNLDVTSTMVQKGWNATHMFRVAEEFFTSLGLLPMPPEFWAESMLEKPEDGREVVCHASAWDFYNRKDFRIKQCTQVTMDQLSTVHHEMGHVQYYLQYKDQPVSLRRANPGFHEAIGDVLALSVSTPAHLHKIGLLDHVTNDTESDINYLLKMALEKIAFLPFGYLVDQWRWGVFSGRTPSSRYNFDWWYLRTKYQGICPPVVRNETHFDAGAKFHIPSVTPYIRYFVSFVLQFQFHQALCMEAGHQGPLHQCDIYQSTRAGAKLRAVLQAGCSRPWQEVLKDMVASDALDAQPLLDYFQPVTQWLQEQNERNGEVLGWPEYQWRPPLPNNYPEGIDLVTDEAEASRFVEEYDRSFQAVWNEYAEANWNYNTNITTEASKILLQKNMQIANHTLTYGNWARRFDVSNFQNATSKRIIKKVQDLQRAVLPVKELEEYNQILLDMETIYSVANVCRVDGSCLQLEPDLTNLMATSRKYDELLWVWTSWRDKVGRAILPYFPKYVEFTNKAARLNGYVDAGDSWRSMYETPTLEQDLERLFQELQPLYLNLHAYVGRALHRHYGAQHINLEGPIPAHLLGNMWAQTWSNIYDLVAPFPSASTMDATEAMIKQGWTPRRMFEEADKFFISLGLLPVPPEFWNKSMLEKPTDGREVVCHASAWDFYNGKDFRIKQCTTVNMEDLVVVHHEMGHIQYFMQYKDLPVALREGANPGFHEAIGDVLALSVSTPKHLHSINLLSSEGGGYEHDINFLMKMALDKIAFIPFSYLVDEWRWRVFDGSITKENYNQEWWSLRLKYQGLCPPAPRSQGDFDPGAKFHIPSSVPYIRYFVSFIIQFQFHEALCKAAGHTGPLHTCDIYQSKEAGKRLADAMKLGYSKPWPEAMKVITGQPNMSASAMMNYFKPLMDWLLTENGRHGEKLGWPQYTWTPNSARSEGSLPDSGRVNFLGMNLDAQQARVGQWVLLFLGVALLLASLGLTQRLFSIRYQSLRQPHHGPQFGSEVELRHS

D(1A) dopamine receptor = D(1A) dopamine receptor (Homo sapiens, UniProt P21728); experiment: DRUGMATRIX: Dopamine D1 radioligand binding (ligand: [3H] SCH-23390); format: cell membranes, CHO, Membrane; conditions: cho; Not Active = under 50% inhibition at 10 µM
Interstitial collagenase = molecular target: T2, Interstitial collagenase (Homo sapiens, UniProt P03956); experiment: biochemical; format: tissue-based, Rheumatoid synovial fibroblasts;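 further: MMP-1 enzyme inhibition assay using a peptide substrate; in other assays of this panel Not Active means under 50% inhibition at 10 µM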
T2 sequence (P03956 whole entry): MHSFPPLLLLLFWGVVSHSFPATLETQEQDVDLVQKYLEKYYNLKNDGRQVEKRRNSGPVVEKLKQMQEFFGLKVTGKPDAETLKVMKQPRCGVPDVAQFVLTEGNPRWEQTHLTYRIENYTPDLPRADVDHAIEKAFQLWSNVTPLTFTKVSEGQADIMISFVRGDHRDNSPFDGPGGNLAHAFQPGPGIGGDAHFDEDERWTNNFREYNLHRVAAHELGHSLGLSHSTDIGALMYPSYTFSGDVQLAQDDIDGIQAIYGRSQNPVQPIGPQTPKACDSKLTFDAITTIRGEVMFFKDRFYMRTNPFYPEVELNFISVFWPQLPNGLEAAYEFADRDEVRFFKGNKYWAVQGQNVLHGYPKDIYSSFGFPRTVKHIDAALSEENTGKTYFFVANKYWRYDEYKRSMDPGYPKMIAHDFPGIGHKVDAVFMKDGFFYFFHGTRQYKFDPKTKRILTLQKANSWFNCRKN

Cannabinoid receptor 1 = Cannabinoid receptor 1 (Homo sapiens, UniProt P21554); format: cell membranes, Membrane; conditions: chem-1; further: in other assays of this panel Not Active means under 50% inhibition at 10 µM
[2] = molecular target: C-C chemokine receptor type 5 (Homo sapiens, UniProt P51681); format: cell membranes, Membrane; conditions: hek293; further: in other assays of this panel Not Active means under 50% inhibition at 10 µM
[3] = molecular target: T3, 3-hydroxy-3-methylglutaryl-coenzyme A reductase (Homo sapiens, UniProt P04035); set-up: species or system Escherichia coli
T3 sequence (P04035 whole entry): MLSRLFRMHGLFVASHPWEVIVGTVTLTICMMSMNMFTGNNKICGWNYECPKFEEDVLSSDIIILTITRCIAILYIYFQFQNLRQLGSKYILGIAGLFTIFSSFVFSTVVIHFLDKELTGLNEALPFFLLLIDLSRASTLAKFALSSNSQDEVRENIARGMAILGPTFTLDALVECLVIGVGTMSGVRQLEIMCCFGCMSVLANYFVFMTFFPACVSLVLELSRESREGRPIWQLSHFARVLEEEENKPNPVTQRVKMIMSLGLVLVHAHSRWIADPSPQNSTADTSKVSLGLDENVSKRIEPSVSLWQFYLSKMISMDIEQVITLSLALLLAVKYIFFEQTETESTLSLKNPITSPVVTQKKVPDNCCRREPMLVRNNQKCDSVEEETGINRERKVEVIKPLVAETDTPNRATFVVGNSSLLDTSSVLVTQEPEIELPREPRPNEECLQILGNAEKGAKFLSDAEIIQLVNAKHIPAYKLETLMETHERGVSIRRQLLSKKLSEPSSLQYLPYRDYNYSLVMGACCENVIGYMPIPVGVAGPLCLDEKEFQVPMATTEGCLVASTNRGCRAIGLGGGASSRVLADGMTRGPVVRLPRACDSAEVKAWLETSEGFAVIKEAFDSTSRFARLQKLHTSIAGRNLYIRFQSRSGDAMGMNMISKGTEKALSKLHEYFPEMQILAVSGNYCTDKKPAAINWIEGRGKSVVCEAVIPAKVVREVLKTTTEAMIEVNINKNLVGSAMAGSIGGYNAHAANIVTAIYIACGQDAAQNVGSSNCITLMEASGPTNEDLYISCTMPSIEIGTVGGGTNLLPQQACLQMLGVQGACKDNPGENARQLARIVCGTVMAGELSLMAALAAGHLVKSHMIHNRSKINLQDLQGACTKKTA

[4] = DRUGMATRIX: Leukotriene, BLT (LTB4) radioligand binding (ligand: [3H]LTB4); format: cell membranes, Membrane; conditions: u-937; Not Active = under 50% inhibition at 10 µM
Insulin receptor = Insulin receptor (Rattus norvegicus, UniProt P15127); format: cell membranes, Wistar, Liver, Membrane; further: in other assays of this panel Not Active means under 50% inhibition at 10 µM
Chain of Insulin receptor (P15127 27-759 limits assumed): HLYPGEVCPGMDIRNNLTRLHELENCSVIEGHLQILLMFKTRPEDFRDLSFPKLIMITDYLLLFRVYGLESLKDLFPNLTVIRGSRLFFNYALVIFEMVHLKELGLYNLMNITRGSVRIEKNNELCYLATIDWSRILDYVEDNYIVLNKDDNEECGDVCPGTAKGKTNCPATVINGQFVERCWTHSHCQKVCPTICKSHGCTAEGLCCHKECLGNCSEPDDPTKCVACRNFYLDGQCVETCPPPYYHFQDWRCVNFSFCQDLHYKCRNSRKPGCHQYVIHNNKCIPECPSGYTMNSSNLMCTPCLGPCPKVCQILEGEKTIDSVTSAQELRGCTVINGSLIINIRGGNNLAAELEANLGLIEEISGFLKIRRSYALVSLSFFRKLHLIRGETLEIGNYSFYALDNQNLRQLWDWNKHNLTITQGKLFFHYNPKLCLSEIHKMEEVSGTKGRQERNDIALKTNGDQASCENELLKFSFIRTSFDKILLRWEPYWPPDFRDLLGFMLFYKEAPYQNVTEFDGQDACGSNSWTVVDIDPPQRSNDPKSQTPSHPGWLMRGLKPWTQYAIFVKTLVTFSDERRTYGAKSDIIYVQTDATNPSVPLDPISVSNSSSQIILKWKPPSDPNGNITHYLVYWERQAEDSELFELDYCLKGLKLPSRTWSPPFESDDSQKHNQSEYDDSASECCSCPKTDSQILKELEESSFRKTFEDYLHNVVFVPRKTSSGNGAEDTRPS
Chain of Insulin receptor (P15127 764-1383 limits assumed): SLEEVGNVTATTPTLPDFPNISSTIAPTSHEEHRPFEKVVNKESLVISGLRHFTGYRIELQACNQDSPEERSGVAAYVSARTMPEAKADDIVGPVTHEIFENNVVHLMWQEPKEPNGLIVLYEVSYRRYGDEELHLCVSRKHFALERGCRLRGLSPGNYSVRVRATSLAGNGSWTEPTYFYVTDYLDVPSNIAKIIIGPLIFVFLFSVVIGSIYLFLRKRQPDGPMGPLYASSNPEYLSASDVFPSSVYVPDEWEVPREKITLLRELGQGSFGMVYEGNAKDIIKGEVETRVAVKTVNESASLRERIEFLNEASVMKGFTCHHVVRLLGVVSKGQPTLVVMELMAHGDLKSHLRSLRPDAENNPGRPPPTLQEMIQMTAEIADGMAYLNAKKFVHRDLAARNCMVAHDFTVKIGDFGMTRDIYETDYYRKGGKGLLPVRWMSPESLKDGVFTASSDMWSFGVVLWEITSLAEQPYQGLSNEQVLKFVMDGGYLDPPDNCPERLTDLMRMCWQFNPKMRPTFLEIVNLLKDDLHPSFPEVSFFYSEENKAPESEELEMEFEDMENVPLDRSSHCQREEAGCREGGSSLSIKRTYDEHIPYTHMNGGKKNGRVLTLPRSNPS

Chain of Cannabinoid receptor 1 (P21554 whole entry): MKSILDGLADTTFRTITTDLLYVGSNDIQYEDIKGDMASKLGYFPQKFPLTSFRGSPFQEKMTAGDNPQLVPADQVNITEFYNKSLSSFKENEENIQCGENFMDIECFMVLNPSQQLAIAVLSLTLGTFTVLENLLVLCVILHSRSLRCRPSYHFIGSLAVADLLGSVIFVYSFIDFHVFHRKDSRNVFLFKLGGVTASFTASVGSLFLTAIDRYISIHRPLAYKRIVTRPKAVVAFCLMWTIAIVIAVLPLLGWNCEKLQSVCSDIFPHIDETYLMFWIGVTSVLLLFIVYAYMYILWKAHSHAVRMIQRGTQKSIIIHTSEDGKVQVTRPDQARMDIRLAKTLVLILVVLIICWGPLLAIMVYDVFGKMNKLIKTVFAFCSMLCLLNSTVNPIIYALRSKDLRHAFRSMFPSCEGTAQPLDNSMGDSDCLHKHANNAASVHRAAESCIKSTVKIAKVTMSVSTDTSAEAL
Chain of C-C chemokine receptor type 5 (P51681 whole entry): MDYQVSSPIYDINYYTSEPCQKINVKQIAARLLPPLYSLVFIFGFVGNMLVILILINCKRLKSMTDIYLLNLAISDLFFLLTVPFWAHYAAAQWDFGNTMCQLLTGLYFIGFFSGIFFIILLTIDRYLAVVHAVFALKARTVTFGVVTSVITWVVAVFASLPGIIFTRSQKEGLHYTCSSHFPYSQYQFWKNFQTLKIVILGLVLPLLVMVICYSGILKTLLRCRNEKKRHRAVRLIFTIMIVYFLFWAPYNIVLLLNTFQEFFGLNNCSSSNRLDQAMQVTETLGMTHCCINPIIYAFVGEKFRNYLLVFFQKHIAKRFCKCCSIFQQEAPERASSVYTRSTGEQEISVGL
Chain of D(1A) dopamine receptor (P21728 whole entry): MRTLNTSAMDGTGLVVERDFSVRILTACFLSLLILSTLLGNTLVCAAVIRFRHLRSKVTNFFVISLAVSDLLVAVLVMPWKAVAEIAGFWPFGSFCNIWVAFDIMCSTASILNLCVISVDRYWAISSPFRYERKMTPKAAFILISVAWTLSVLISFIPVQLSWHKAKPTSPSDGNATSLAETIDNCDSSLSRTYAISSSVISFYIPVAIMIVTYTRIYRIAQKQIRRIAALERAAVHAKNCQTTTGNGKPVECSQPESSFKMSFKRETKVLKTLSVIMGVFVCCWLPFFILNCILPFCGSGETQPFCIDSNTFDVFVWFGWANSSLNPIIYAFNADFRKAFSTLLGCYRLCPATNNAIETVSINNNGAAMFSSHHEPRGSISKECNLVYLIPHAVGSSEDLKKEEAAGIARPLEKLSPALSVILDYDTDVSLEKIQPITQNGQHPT

CC[C@]1(O)C[C@H]2CN(CCc3c([nH]c4ccccc34)[C@@](C(=O)OC)(c3cc4c(cc3OC)N(C=O)[C@H]3[C@@](O)(C(=O)OC)[C@H](OC(C)=O)[C@]5(CC)C=CCN6CC[C@]43[C@@H]65)C2)C1 [VINCRISTINE]
Not Active: IC50 [1] | IC50 (D(1A) dopamine receptor) | IC50 (Interstitial collagenase) | IC50 (Cannabinoid receptor 1) | IC50 [2] | IC50 [3] | IC50 [4] | Ki [4] | IC50 (Insulin receptor)

CCCOc1ccccc1-c1nc2nn[nH]c2c(=O)[nH]1 [ZAPRINAST]
Not Active: IC50 [1] | IC50 (D(1A) dopamine receptor) | IC50 (Interstitial collagenase) | IC50 (Cannabinoid receptor 1) | IC50 [2] | IC50 [3] | IC50 [4] | Ki [4] | IC50 (Insulin receptor)

SODIUM NITROPRUSSIDE
Not Active: IC50 [1] | Ki [1] | IC50 (D(1A) dopamine receptor) | Ki (D(1A) dopamine receptor) | IC50 (Interstitial collagenase) | Ki (Interstitial collagenase) | IC50 (Cannabinoid receptor 1) | Ki (Cannabinoid receptor 1) | IC50 [2] | Ki [2] | IC50 [3] | Ki [3] | IC50 [4] | Ki [4] | IC50 (Insulin receptor) | Ki (Insulin receptor)
